# Earlier results, collected in patent US10588873B2, “Topical antifungal compositions” (Exodos Life Sciences LP, priority 2015, dated 2020).
# Details: only or first printed pKa
row,Structure (SMILES),pKa
1,CC(=O)CCC(=O)O [levulinic acid],4.6
2,CCCCCC(=O)O [caproic (hexanoic) acid],4.88
